Measurements taken from US8211883B2, “Topical delivery of phthalocyanines” (priority 2004, dated 2012).
Marks after values point to notes of the source that are not given here.

What was measured:
[1] = test system: Chinese hamster V79-379 lung fibroblasts; experiment: Uptake of phthalocyanines into V79 cells; conditions: for n Moles/10^6 Cells/μM (composite uptake value): V79 cells, average of all data, asterisk: listed value is for 1 μM, average would be higher
Experimental: Chinese hamster V79-379 lung fibroblasts were grown in monolayer culture in McCoy's 5A medium (Gibco Laboratories, Grand Island, N.Y.) augmented with 10% calf serum and buffered with 20 mM HEPES (pH 7.4).
Total uptake was determined by scraping the phthalocyanine-treated monolayer, collecting the cells on a glass-fiber filter, and extracting the phthalocyanine in ethanol, as previously described by Ramakrishnan, et al., 1989. (Ramakrishnan, N., M. E. Clay, M. F. Horng, A. R. Antunez, & H. H. Evans, “DNA Lesions and DNA Degradation in Mouse Lymphoma L5178Y Cells After Photodynamic Treatment Sensitized by Chloroaluminum Phthalocyanine”, Photochem. Photobiol, in press, 1989). The amount of drug was determined by absorption at 674 nm and expressed relative to the number of cells, as measured in a Coulter cell counter on an aliquot of the cell population. Controls included cells not treated with drug, medium alone, and drug-containing medium without cells.
The cells were treated with 1 μM AlPcCl (from Eastman Kodak, Rochester, N.Y.) or with phthalocyanine compositions I-VI (0.5-1.0 μM final concentration in the medium) for 18 hours by adding the appropriate volume of a 1.0 mM stock solution in dimethylformamide (DMF) to the culture medium. The growth medium was replaced with 4 mL Hank's balanced salt solution (HBSS), and the cells were irradiated. The light source was a 500 W tungsten-halogen lamp located approximately 29 inches below the surface of a glass exposure tray. The visible light administered to the cells was filtered to allow passage of only that portion of the visible spectrum above 600 nm (Lee Primary red filter No. 106, Vincent Lighting, Cleveland, Ohio). The fluence rate was approximately 0.074 kJ/m^2/s at the level of the cell monolayer.
V79 cells Chinese hamster lung fibroblasts were cultured using the cell culture methods described above. The phthalocyanines listed in table 2 were added to the cultures typically at concentrations of 1 μM, 2 μM, and/or 4 μM and incubated for 18 hours, after which aliquots of the cells were counted and other aliquots were collected on a glass fiber filter. When the filters were dry, the phthalocyanines were extracted into ethanol and the absorption determined at the peak wavelength, usually 668 nm. Values were converted to nmoles taken up by 10^6 cells, using an extinction coefficient of 2.93×10^5.

[2] = test system: Chinese hamster V79-379 lung fibroblasts; experiment: Clonogenic cell survival of V79 cells after photodynamic treatment; assay type: cell-based; conditions: for LD 90 (light dosage that kills 90% of cells): 18 hours, 675 nm red light, VII# preplated data only, XXI* not totally soluble at 0.5 mM
Experimental: Cells were irradiated at a density of approximately 2×10^6 per 25 cm^2 flask. Immediately after irradiation, the cell monolayer was treated with trypsin, and appropriate aliquots were plated in triplicate to give 100 to 200 colonies in each 10-cm Petri dish. Cell survival was determined by the ability of the cells to form colonies containing at least 50 cells. The response of cells treated with 1 μM AlPcCl and light was compared in each experiment.
Photocytotoxicity of the phthalocyanines compounds I to VI was also assessed by clonogenic assay (Table 1, FIG. 1). In all experiments, 1 μM AlPcCl was included for comparison purposes. From the survival curves (FIG. 1), the fluence reducing the cell survival to 10% (F10) was obtained. The ratio of the F10 for AlPcCl and the F10 for the test compound is recorded in Table 1. Compounds I and II appear to be nearly as efficient photosensitizers as AlPcCl, while compound IV (assayed at half the concentration) was almost twice as efficient as the standard AlPcCl. […] However, in spite of the low efficiency of compound V in inhibiting cell growth, survival measurements were made for this compound, because it was taken up into V79 cells somewhat more efficiently than compounds III and VI.
In order to take differences in cellular uptake into consideration in the assessment of the relative efficiency of these phthalocyanines as photosensitizers of V79 cells, the survival data were replotted against the product of intracellular phthalocyanine concentration and light fluence (FIG. 2). From these curves, the product of intracellular concentration and light fluence reducing survival to 10% (CF10) was obtained, and comparisons of the values for AlPcCl and the test compounds are recorded in Table 1. By this and the other criteria, compound IV appears to be the most efficient photosensitizer. However, when consideration is given to the lesser cell uptake of compound V, it appears to be about as strong a photosensitizer as compound IV.
Using the cell culture methods described above, V79 cells Chinese hamster lung fibroblasts were treated with either 0.5 or 1.0 μM of the phthalocyanines listed in Table 3. About 18 hours thereafter, the cells were irradiated with increasing doses of 675 nm broad band red light from a 500 W tungsten-halogen lamp fitted with a 600 nm high pass filter, to determine the light dosage that would kill 90% of the phthalocyanine treated cells. Where 90% of the cells were not killed, the maximum percent of cells killed were determined, (expressed as % survival) and the related light dosage recorded.

L5178Y cells = experiment: Induction of apoptosis (DNA ladder) in L5178Y cells after PDT; assay type: cell-based, Mouse; conditions: for induction of apoptosis: 1 μM at a fluence of 30 kJ/m^2; for Fluence, Minimum Demonstrated Condition to Induce Apoptosis / C × F Ld90, Minimum Demonstrated Condition to Induce Apoptosis: 0.5 μM; for C × F Ld90, Minimum Demonstrated Condition to Induce Apoptosis: product of concentration and fluence

C[Si](C)(CCCO)O[Si]1(O)n2c3c4ccccc4c2N=C2N=C(N=c4c5ccccc5c(n41)=NC1=NC(=N3)c3ccccc31)c1ccccc12 (stereo not drawn) [Compound XVII, HOSiPCOSi(CH3)2(CH2)3OH]
Uptake Into V79 Cells, 4 μM ([1]; 18 hours): 1.7 ± 0.2 n Moles/10^6 cells
n Moles/10^6 Cells/μM (composite uptake value) [1]: 0.4 n Moles/10^6 Cells/μM
Maximum Effect (% survival at kj/m^2) ([2]; 1 μM, at 10 kj/m^2): 19% at 10

CC(=O)OCCC[Si](C)(C)O[Si]1(O)n2c3c4ccccc4c2N=C2N=C(N=c4c5ccccc5c(n41)=NC1=NC(=N3)c3ccccc31)c1ccccc12 (stereo not drawn) [Compound XIII, HOSiPcOSi(CH3)2(CH2)3OCOCH3]
Uptake Into V79 Cells, 4 μM ([1]; 18 hours): 1.7 ± 0.3 n Moles/10^6 cells
n Moles/10^6 Cells/μM (composite uptake value) [1]: 0.4 n Moles/10^6 Cells/μM
Maximum Effect (% survival at kj/m^2) ([2]; 1 μM, at 15 kj/m^2): 88% at 15

C[Si](C)(CCCN1CCOCC1)O[Si]1(O)n2c3c4ccccc4c2N=C2N=C(N=c4c5ccccc5c(n41)=NC1=NC(=N3)c3ccccc31)c1ccccc12 (stereo not drawn) [Compound XIX, HOSiPcOSi(CH3)2(CH2)3NC4H8O]
Uptake Into V79 Cells, 1 μM ([1]; 18 hours): 0.3 ± 0.1 n Moles/10^6 cells
Uptake Into V79 Cells, 4 μM ([1]; 18 hours): 2.4 ± 0.5 n Moles/10^6 cells
Maximum Effect (% survival at kj/m^2) ([2]; 1 μM, at 10 kj/m^2): 81% at 10

CN(C)CCCN(CCCN(C)C)CCC[Si](C)(C)O[Si]1(O)n2c3c4ccccc4c2N=C2N=C(N=c4c5ccccc5c(n41)=NC1=NC(=N3)c3ccccc31)c1ccccc12 (stereo not drawn) [Compound XXVII, HOSiPcOSi(CH3)2(CH2)3N[(CH2)3N(CH3)2]2]
Uptake Into V79 Cells, 1 μM ([1]; 18 hours): 1.8 n Moles/10^6 cells
Uptake Into V79 Cells, 4 μM ([1]; 18 hours): 5.0 ± 0.01 n Moles/10^6 cells
n Moles/10^6 Cells/μM (composite uptake value) [1]: 1.5 n Moles/10^6 Cells/μM
LD 90 (light dosage that kills 90% of cells) ([2]; 0.5 μM): 6.8 kj/m^2

CCCCCCCCCCCC[N+](C)(C)CCC[Si](C)(C)[O][Al]1[n]2c3c4ccccc4c2N=C2N=C(N=c4c5ccccc5c([n]41)=NC1=NC(=N3)c3ccccc31)c1ccccc12.[I-] [Compound XXI, AlPcOSi(CH3)2(CH2)3N^+(CH3)2)(CH2)11CH3I^−]
Uptake Into V79 Cells, 1 μM ([1]; 18 hours): 1.2 ± 0.2 n Moles/10^6 cells
Uptake Into V79 Cells, 4 μM ([1]; 18 hours): 5.8 ± 0.4 n Moles/10^6 cells
n Moles/10^6 Cells/μM (composite uptake value) [1]: 1.3 n Moles/10^6 Cells/μM
LD 90 (light dosage that kills 90% of cells) ([2]; 0.5 μM): 15* kj/m^2

C[Si](C)(CCCN1CCSCC1)O[Si]1(O)n2c3c4ccccc4c2N=C2N=C(N=c4c5ccccc5c(n41)=NC1=NC(=N3)c3ccccc31)c1ccccc12 (stereo not drawn) [Compound XXIV, HOSiPCOSi(CH3)2(CH2)3NC4H8S]
Uptake Into V79 Cells, 1 μM ([1]; 18 hours): 0.003 ± 0.001 n Moles/10^6 cells
Uptake Into V79 Cells, 4 μM ([1]; 18 hours): 1.3 ± 0.1 n Moles/10^6 cells
n Moles/10^6 Cells/μM (composite uptake value) [1]: <0.05* n Moles/10^6 Cells/μM
Maximum Effect (% survival at kj/m^2) ([2]; 0.5 μM, at 10 kj/m^2): 100% at 10

C[Si](C)(CCCCNC(=S)N[C@@H]1O[C@H](CO)[C@@H](O)[C@H](O)[C@H]1O)O[Si]1(O[Si](C)(C)CCCCNC(=S)N[C@@H]2O[C@H](CO)[C@@H](O)[C@H](O)[C@H]2O)n2c3c4ccccc4c2N=C2N=C(N=c4c5ccccc5c(n41)=NC1=NC(=N3)c3ccccc31)c1ccccc12 [Compound XI, SiPc[OSi(CH3)2(CH2)4NHCSNHC6H111O5]2]
Uptake Into V79 Cells, 1 μM ([1]; 18 hours): 0.1 n Moles/10^6 cells
Uptake Into V79 Cells, 4 μM ([1]; 18 hours): 0.3 ± 0.1 n Moles/10^6 cells
n Moles/10^6 Cells/μM (composite uptake value) [1]: 0.1 n Moles/10^6 Cells/μM
induction of apoptosis (L5178Y cells): did not induce apoptosis
Maximum Effect (% survival at kj/m^2) ([2]; 1 μM, at 20 kj/m^2): 100% at 20

CCCCCCCCCCCC[N+](C)(C)CCC[Si](C)(C)O[Si]1(O[Si](C)(C)CCC[N+](C)(C)CCCCCCCCCCCC)n2c3c4ccccc4c2N=C2N=C(N=c4c5ccccc5c(n41)=NC1=NC(=N3)c3ccccc31)c1ccccc12 [Compound XIV, SiPc[OSi(CH3)2(CH2)3N^+(CH3)2(CH2)11CH3]22I^−]
Uptake Into V79 Cells, 1 μM ([1]; 18 hours): 0.03 ± 0.01 n Moles/10^6 cells
Uptake Into V79 Cells, 4 μM ([1]; 18 hours): 0.05 ± 0.01 n Moles/10^6 cells
n Moles/10^6 Cells/μM (composite uptake value) [1]: <0.05 n Moles/10^6 Cells/μM
induction of apoptosis (L5178Y cells): did not induce apoptosis
Maximum Effect (% survival at kj/m^2) ([2]; 1 μM, at 10 kj/m^2): 93% at 10

CCCCN(CCCC)CCC[Si](C)(C)O[Si]1(O)n2c3c4ccccc4c2N=C2N=C(N=c4c5ccccc5c(n41)=NC1=NC(=N3)c3ccccc31)c1ccccc12 (stereo not drawn) [Compound XXV, HOSiPcOSi(CH3)2(CH2)3N(CH2)3CH3)2]
Uptake Into V79 Cells, 1 μM ([1]; 18 hours): 0.02 ± 0.02 n Moles/10^6 cells
Uptake Into V79 Cells, 4 μM ([1]; 18 hours): 1.5 ± 0.3 n Moles/10^6 cells
n Moles/10^6 Cells/μM (composite uptake value) [1]: <0.05* n Moles/10^6 Cells/μM
Maximum Effect (% survival at kj/m^2) ([2]; 0.5 μM, at 8 kj/m^2): 87% at 8

CCCCN1CCN(CCC[Si](C)(C)O[Si]2(O)n3c4c5ccccc5c3N=C3N=C(N=c5c6ccccc6c(n52)=NC2=NC(=N4)c4ccccc42)c2ccccc23)CC1 (stereo not drawn) [Compound XXXI, HOSiPCOSi(CH3)2(CH2)3NC4H8N(CH2)3CH3]
Uptake Into V79 Cells, 2 μM ([1]; 2 μM, 18 hours): 0.61 ± 0.1 n Moles/10^6 cells
n Moles/10^6 Cells/μM (composite uptake value) [1]: 0.3 n Moles/10^6 Cells/μM
Maximum Effect (% survival at kj/m^2) ([2]; 0.5 μM, at 10 kj/m^2): 30% at 10

C[Si](C)(CCCCN)O[Si]1(O[Si](C)(C)CCCCN)n2c3c4ccccc4c2N=C2N=C(N=c4c5ccccc5c(n41)=NC1=NC(=N3)c3ccccc31)c1ccccc12 [Compound VII, SiPc[OSi(CH3)2(CH2)4NH2]2]
Uptake Into V79 Cells, 1 μM ([1]; 18 hours): 0.2 ± 0.03 n Moles/10^6 cells
Uptake Into V79 Cells, 4 μM ([1]; 18 hours): 1.1 ± 0.5 n Moles/10^6 cells
n Moles/10^6 Cells/μM (composite uptake value) [1]: 0.2 n Moles/10^6 Cells/μM
Fluence, Minimum Demonstrated Condition to Induce Apoptosis (L5178Y cells): 3.0 kJ/m^2
C × F Ld90, Minimum Demonstrated Condition to Induce Apoptosis (L5178Y cells): 1.5 kJ/m^2
LD 90 (light dosage that kills 90% of cells) ([2]; 0.5 μM): 4 kj/m^2

C[Si](C)(CCCN=C=S)O[Si]1(O)n2c3c4ccccc4c2N=C2N=C(N=c4c5ccccc5c(n41)=NC1=NC(=N3)c3ccccc31)c1ccccc12 (stereo not drawn) [Compound XXVI, HOSiPcOSi(CH3)2(CH2)3NCS]
Maximum Effect (% survival at kj/m^2) ([2]; 1 μM, at 30 kj/m^2): 100% at 30

CN(C)CCCCCCCC[Si](C)(C)O[Si]1(O)n2c3c4ccccc4c2N=C2N=C(N=c4c5ccccc5c(n41)=NC1=NC(=N3)c3ccccc31)c1ccccc12 (stereo not drawn) [Compound XXII, HOSiPcOSi(CH3)2(CH2)8N(CH3)2]
Fluence, Minimum Demonstrated Condition to Induce Apoptosis (L5178Y cells): 10.0 kJ/m^2
C × F Ld90, Minimum Demonstrated Condition to Induce Apoptosis (L5178Y cells): 5.0 kJ/m^2
LD 90 (light dosage that kills 90% of cells) ([2]; 0.5 μM): 10 kj/m^2
